inhibition, melting point and IC50 data for six compounds are collected here from article PMC6923765, “Structural Design, Synthesis, and Preliminary Biological Evaluation of Novel Dihomooxacalix[4]arene-Based Anti-tumor Agents” (Frontiers in Chemistry, 2019).

The subject of series [1] is HUVEC cells (human umbilical vein endothelial cells). As to the kind of experiment: SRB cytotoxicity assay, HUVEC normal cells. In kind it is cell-based. The conditions noted are these: Homo sapiens, HUVEC, 72 h, 10 μM, SRB; toxicity to normal cells. As to the method:
(§1) A549 cells (human lung carcinoma cells), MCF-7 cells (human breast cancer cells), HeLa cells (human cervical cancer cells), HepG2 cells (human hepatocellular carcinoma cells), and HUVEC cells (human umbilical vein endothelial cells) were kindly provided by WeiFang Caleb Pharmaceuticals, Inc. A549 cells were cultured in Ham's F12K medium containing 10% fetal bovine serum, 2 mM L-glutamine, and 1.5 g/L sodium bicarbonate; MCF-7 cells were cultured on cell culture flask using RPMI 1640 medium with 2 mM L-glutamine adjusted to contain 1.5 g/L sodium bicarbonate, 4.5 g/L glucose, 10 mM HEPES, 1.0 mM sodium pyruvate, and 10% fetal bovine serum. Hela cells were cultured on Cell culture flask using 2 mM L-glutamine adjusted to contain 1.5 g/L sodium bicarbonate, 4.5 g/L glucose, 10 mM HEPES, and 1.0 mM sodium pyruvate in RPMI 1640 medium supplemented with 0.5 mg/ml G418 and 10% fetal bovine serum. HepG2 cells were cultured in minimum essential medium (Eagle) with 2 mM L-glutamine, Earle's BSS, 1.5 g/L sodium bicarbonate, 0.1 mM non-essential amino acids, 1.0 mM sodium pyruvate, and 10% fetal bovine serum. HUVEC cells were cultured in M199 medium containing 2 mM L-glutamine adjusted to contain 1.5 g/L sodium bicarbonate, 4.5 g/L glucose, 10 mM HEPES, 1.0 mM sodium pyruvate, ECGS, and 10% fetal bovine serum. All cells were cultured at 37°C in 5% CO2.
(§2) The cell proliferation of adherent cells was determined by sulforhodamine B assay (SRB) (Quan et al., [2009]; Li et al., [2017]). All cells were cultured in culture medium containing 10% fetal bovine serum and have been in the logarithmic growth phase. All cell types were seeded in a 96-well culture plate at a concentration of 1–5 × 10^4 cells per well at 37°C in a 5% CO2 incubator for 24 h. The cells were then exposed to seven drug concentrations of dihomooxacalix[4]arene derivatives for 72 h with each concentration located in three wells. Then, the cells were fixed with trichloroacetic acid (TCA). After washing, SRB working solution was added to the cells to […]. SRB combined with protein was dissolved in Tris base. OD values were measured for each well with a SPECTRA max 190 Cell microplate reader under 540 nm wavelength. According to the OD value, the cell growth inhibition rate was calculated.
(In general: The SRB assay estimates cell density from bound dye.)

The test system of series [2] is MCF-7 cells (human breast cancer cells). The series can be described thus: SRB cytotoxicity assay, MCF-7 cells. The conditions noted are these: MCF7, 10 μM, 72 h, SRB. Type of series: cell-based. On the procedure: as §1, §2
The subject of series [3] is HepG2 cells (human hepatocellular carcinoma cells). As to the kind of experiment: SRB cytotoxicity assay, HepG2 cells. Type of series: cell-based. The conditions noted are these: 10 μM, 72 h, SRB. As to the method:
as §1, §2

Series [4] concerns A549 cells (human lung carcinoma cells). As to the kind of experiment: SRB cytotoxicity assay, A549 cells. Type of series: cell-based. The following applies: 72 h, SRB; for IC50: read-out: IC50 (μM) A549. As to the method: as §1, §2
Series [5] deals with HeLa cells (human cervical cancer cells). As to the kind of experiment: SRB cytotoxicity assay, HeLa cells. Type of series: cell-based. The following applies: 10 μM, 72 h, SRB. On the procedure: as §1, §2

In general, inhibition refers to the change of the read-out against control, counted positive when it falls. One may read the melting point as the temperature, or range, at which the solid turns liquid. `COc1ccc(CCNC(=O)COc2c3cc(C(C)(C)C)cc2Cc2cc(C(C)(C)C)cc(c2O)Cc2cc(C(C)(C)C)cc(c2OCC(=O)NCCc2ccc(OC)c(OC)c2)Cc2cc(C(C)(C)C)cc(c2O)COC3)cc1OC` [Compound 4P, 7,13,19,25-tetra-tert-butyl-28,30-di-hydroxy-27,29-di-(N-(3,4-dimethoxyphenethyl)-aminocarbonylmethoxyl)-2,3-dihomo-3-oxacalix [4]arene] registered a melting point of 117.4 to 120.1 °C. Further, at 10 µM the inhibition in series [1] was 0%. The same compound showed an inhibition at 10 µM in series [2] of 0%. In series [3], this compound yielded an inhibition at 10 µM of 11%. The inhibition at 10 µM in series [4] is 22%. The same compound returned an inhibition at 10 µM in series [5] of 37%.
The IC50 is the midpoint of a concentration-inhibition curve. The compound `CC(C)(C)c1cc2c(O)c(c1)Cc1cc(C(C)(C)C)cc3c1OCC(=O)NCCNC(=O)COc1c(cc(C(C)(C)C)cc1Cc1cc(C(C)(C)C)cc(c1O)C3)COC2` [Compound 4E] showed a melting point of 204.8 to 206.3 °C. In series [1], the inhibition at 10 µM came to 26%. The compound also displayed an inhibition at 10 µM in series [2] of 50%. The inhibition at 10 µM in series [3] was 21%. For the same compound, in series [4], the inhibition at 10 µM is 60% and the IC50 came to 12.4 ± 2.2 µM. This compound gave an inhibition at 10 µM in series [5] of 46%.
In the case of `CCCCCNC(=O)COc1c2cc(C(C)(C)C)cc1Cc1cc(C(C)(C)C)cc(c1O)Cc1cc(C(C)(C)C)cc(c1OCC(=O)NCCCCC)Cc1cc(C(C)(C)C)cc(c1O)COC2` [Compound 4L, 7,13,19,25-tetra-tert-butyl-28,30-di-hydroxy-27,29-di-(N-pentyl-aminocarbonylmethoxyl)-2,3-dihomo-3-oxacalix[4] arene], the melting point fell in the range of 117.7 to 119.3 °C. The same compound showed an inhibition at 10 µM in series [1] of 12%. In addition, in series [2], the inhibition at 10 µM was determined as 41%. The compound further showed an inhibition at 10 µM in series [3] of 18%. Further, in series [4], the inhibition at 10 µM was found to be 66% and the IC50 worked out at 1.7 ± 0.4 µM. This compound also yielded an inhibition at 10 µM in series [5] of 49%.
Compound `CC(C)(C)c1cc2c(O)c(c1)Cc1cc(C(C)(C)C)cc(c1OCC(=O)NCCc1ccccc1)Cc1cc(C(C)(C)C)cc(c1O)Cc1cc(C(C)(C)C)cc(c1OCC(=O)NCCc1ccccc1)COC2` [Compound 4O, 7,13,19,25-tetra-tert-butyl-28,30-di-hydroxy-27,29-di-(N-phenethyl-aminocarbonylmethoxyl)-2,3-dihomo-3-oxacalix [4]arene] had a melting point of 114.6 to 115.9 °C. For the same compound, testing at 10 µM in series [1] gave an inhibition of 35%. The compound further showed an inhibition at 10 µM in series [2] of 45%. In series [3], this compound showed an inhibition at 10 µM of 9%. In series [4], the inhibition at 10 µM was found to be 63% and the IC50 stood at 12.6 ± 2 µM. This compound had an inhibition at 10 µM in series [5] of 60%.
In the case of `CC(C)(C)c1cc2c(O)c(c1)Cc1cc(C(C)(C)C)cc3c1OCC(=O)NCCCCNC(=O)COc1c(cc(C(C)(C)C)cc1Cc1cc(C(C)(C)C)cc(c1O)C3)COC2` [Compound 4G], the melting point is 157.6 to 158.7 °C. The same compound returned an inhibition at 10 µM in series [1] of 34%. For the same compound, in series [2], at 10 µM the inhibition was 34%. For the same compound, at 10 µM the inhibition in series [3] was 16%. This compound also displayed an inhibition at 10 µM in series [4] of 21%. 10 µM produced 40% inhibition in series [5].
`CCNC(=O)COc1c2cc(C(C)(C)C)cc1Cc1cc(C(C)(C)C)cc(c1O)Cc1cc(C(C)(C)C)cc(c1OCC(=O)NCC)Cc1cc(C(C)(C)C)cc(c1O)COC2` [Compound 4H, 7,13,19,25-tetra-tert-butyl-28,30-di-hydroxy-27,29-di-(N-ethyl-aminocarbonylmethoxyl)-2,3-dihomo-3-oxacalix [4]arene] came in with a melting point of 138.9 to 141.2 °C. In addition, in series [1], 10 µM produced 6% inhibition. In series [2], this compound returned an inhibition at 10 µM of 37%. The same compound displayed an inhibition at 10 µM in series [3] of 31%. In addition, the inhibition at 10 µM in series [4] is 31%. The compound also had an inhibition at 10 µM in series [5] of 41%.
